In patent US20040247524A1, “Method of treatment of an inflammatory disorder with a Vanin-1 antagonist” (priority 2003, published 2004):
Like-named read-outs stand apart in the source and are kept apart here.

Tests used:
Vanin-1 = conditions: cited from earlier work
[1] = tested on: MIP-2, iNOS, COX-2, and COX-1 mRNAs; test: Semi-quantitative RT-PCR of inflammatory factors in jejunum; type: in vivo, mouse
Protocol: (§1) Indomethacin (Sigma) was administered at a dose of 25 mg/kg in 5% sodium carbonate to Vanin-1^−/− (n=5) and WT (n=5) mice in 2 SC injections at 12 h-interval. Mice were sacrificed 20 hrs after the first injection. […] Cystamine was given by gavage 3 times on day 1 and once on day 2 at the dose of 120 mg/kg. The dose was adjusted so as to not induce intestinal inflammation. Mice were sacrificed 5 hours after the last gavage. To evaluate the impact of cystamine on indomethacin treatment, Vanin-1^−/− (n=5) and WT (n=5) mice received cystamine preceding indomethacin injection. In a complement study, indomethacin-treated WT mice (n=5) were supplemented with N-acetylcysteine (NAC) to determine the relationship between GSH depletion and injury. The antioxidant was given by gavage (200 μl of a 150 mg/ml, pH 7 solution) three times a day, starting 12 hrs prior indomethacin treatment.
Total cellular RNA was isolated from jejunum samples of indomethacin-treated mice, by guanidinium thiocyanate phenol-chloroform extraction.

GSH [2] = test: GSH levels in liver of treated mice; type: in vivo, mouse
Protocol: as §1
(§2) γ-GCS activity was determined by the method described by (Seelig, 1984). GSH levels were determined according to Tietze et al., (1969).

γ-GCS [3] = molecular target: T1, γ-GCS (Mus musculus, UniProt P97494); test: γ-GCS activity in intestine of treated mice; type: in vivo
T1 construct: Determination of γ-GCS Activity and GSH Levels in Liver and Intestine; from tissue; host or cells: liver and intestine of WT and Vanin-1-/- BALB/c mice
T1 sequence (P97494 1-637): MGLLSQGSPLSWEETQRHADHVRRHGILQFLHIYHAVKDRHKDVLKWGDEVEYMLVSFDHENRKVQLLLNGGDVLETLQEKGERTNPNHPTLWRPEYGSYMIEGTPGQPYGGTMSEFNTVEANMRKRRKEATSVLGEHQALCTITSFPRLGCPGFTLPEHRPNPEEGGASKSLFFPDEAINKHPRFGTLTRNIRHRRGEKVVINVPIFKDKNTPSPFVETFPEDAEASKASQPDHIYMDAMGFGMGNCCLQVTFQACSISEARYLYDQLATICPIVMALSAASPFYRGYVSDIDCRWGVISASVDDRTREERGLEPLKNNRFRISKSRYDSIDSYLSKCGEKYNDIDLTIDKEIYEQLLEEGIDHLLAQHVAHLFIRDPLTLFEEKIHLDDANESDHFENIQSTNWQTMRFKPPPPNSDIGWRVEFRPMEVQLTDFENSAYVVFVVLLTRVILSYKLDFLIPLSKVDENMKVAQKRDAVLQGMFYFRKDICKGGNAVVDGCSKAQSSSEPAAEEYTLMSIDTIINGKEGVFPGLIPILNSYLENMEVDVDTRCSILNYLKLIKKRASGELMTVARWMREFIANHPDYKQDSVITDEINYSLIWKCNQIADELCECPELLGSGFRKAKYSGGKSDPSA
T1 sequence (O09172 1-274 partner): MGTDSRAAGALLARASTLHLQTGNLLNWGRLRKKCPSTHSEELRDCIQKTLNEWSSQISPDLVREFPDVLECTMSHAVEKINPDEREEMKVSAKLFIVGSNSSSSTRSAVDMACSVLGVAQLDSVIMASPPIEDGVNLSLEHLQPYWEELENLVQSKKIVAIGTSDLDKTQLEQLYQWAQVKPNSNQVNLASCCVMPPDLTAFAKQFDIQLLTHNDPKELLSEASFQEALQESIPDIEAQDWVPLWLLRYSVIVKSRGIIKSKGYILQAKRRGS
Protocol: as §1, §2

GSH [4] = test: GSH levels in intestine of treated mice; type: in vivo, mouse
Protocol: as §1, §2

γ-GCS [5] = molecular target: T1, γ-GCS; test: γ-GCS activity in liver of treated mice; type: in vivo
Protocol: as §1, §2

MPO = test: Intestinal myeloperoxidase (MPO) activity; type: in vivo, mouse; conditions: jejunum, after indomethacin treatment
Protocol: as §1, with “treatment. 3-cm intestinal samples taken in the most injured part, i.e. the colon of S. mansoni-infected mice and the jejunum of indomethacin-treated mice. Samples were homogenized in 0.5% hexadecyltrimethyl-ammonium bromide. MPO activity was determined as described previously (Liaudet, 2000).” for “treatment.”

jejunum = test: Histological examination of intestinal injury; type: in vivo, mouse; conditions: following indomethacin treatment
Protocol: as §1
After sacrifice, jejunum of the indomethacin-treated mice were removed, formalin-fixed and paraffin-embedded. They were cut to 4-μm thickness and stained with hematoxylin-phloxine-saffron. Immunohistochemistry was performed on jejunum cryosections using the anti-Vanin-1 mAb H202-407 modified from Aurrand-Lions et al. (Aurrand-Lions, 1996).

[6] = as described by Pitari et al. (1994)
[7] = cystamine administered without indomethacin
[8] = control as in indomethacin-treated animals
[9] = jejunum, Vanin-1−/− mice, indomethacin 2 x 25 mg/kg SC
[10] = NAC given to indomethacin-treated mice

Structure (SMILES): c1cc(SSc2ccncc2)ccn1 [4,4′-dithiodipyridine]
- type of Vanin-1 (pantetheinase) inhibition (Vanin-1; [6]): reversible inhibition

Structure (SMILES): O=C(O)c1cc(SSc2ccc([N+](=O)[O-])c(C(=O)O)c2)ccc1[N+](=O)[O-] [5,5′-dithiobis(2-nitrobenzoic acid)]
- type of Vanin-1 (pantetheinase) inhibition (Vanin-1; [6]): reversible inhibition

Structure (SMILES): NCCSSCCN [Cystamine, cystamine]
- COX-2 mRNA [1, 7]: moderate upregulation
- iNOS and MIP-2 mRNAs [1, 7]: did not change
- mRNA expression of inflammatory factors ([1]; cystamine given to indomethacin-treated Vanin-1−/− mice): restored mRNA expression to WT levels
- GSH (GSH [2]; KO (Vanin-1−/−) mice): 5.55 ± 1.20
- GSH (GSH [2]; WT mice): 5.36 ± 1.15
- GSH levels, change (GSH [2]; [8]): dramatically reduced
- γ-GCS (γ-GCS [3]; KO (Vanin-1−/−) mice): 21.5 ± 2.4
- γ-GCS (γ-GCS [3]; WT mice): 20.2 ± 1.2
- type of Vanin-1 (pantetheinase) inhibition (Vanin-1; [6]): reversible inhibition
- GSH (GSH [4]; KO (Vanin-1−/−) mice): 1.0 ± 0.05
- GSH (GSH [4]; WT mice): 0.90 ± 0.12
- intestinal GSH levels, change (GSH [4]; cystamine administration): reduced
- γ-GCS (γ-GCS [5]; KO (Vanin-1−/−) mice): 11.2 ± 0.58
- γ-GCS (γ-GCS [5]; WT mice): 10.8 ± 0.63
- γ-GCS activity, change (γ-GCS [5]; [8]): dramatically reduced

Structure (SMILES): COc1ccc2c(c1)c(CC(=O)O)c(C)n2C(=O)c1ccc(Cl)cc1 [Indomethacin, indomethacin]
- COX-2 and iNOS mRNAs [1, 9]: barely amplified
- MIP-2 mRNA [1, 9]: undetectable
- COX-2, iNOS and MIP-2 mRNAs ([1]; jejunum, WT mice, indomethacin 2 x 25 mg/kg SC): sharp augmentation
- GSH (GSH [2]; KO (Vanin-1−/−) mice): 16.6 ± 1.26
- GSH (GSH [2]; WT mice): 9.50 ± 1.44
- γ-GCS (γ-GCS [3]; KO (Vanin-1−/−) mice): 23.7 ± 2.63
- γ-GCS (γ-GCS [3]; WT mice): 18.4 ± 2.18
- Intestinal MPO activity (MPO): dramatically enhanced
- Histology of intestinal injury (jejunum; Vanin-1−/− mice): appeared normal
- Histology of intestinal injury (jejunum; WT mice): flattened mucosal villi
- GSH (GSH [4]; KO (Vanin-1−/−) mice): 1.37 ± 0.24
- GSH (GSH [4]; WT mice): 0.56 ± 0.08
- γ-GCS (γ-GCS [5]; KO (Vanin-1−/−) mice): 37.9 ± 3.33
- γ-GCS (γ-GCS [5]; WT mice): 23.4 ± 0.72
- γ-GCS activity, change (γ-GCS [5]; following indomethacin treatment): increased

Structure (SMILES): CCN1C(=O)C=CC1=O [N-ethyl maleimide]
- type of Vanin-1 (pantetheinase) inhibition (Vanin-1; [6]): irreversible inhibition

Structure (SMILES): CC(=O)N[C@@H](CS)C(=O)O [NAC, N-acetylcysteine]
- γ-GCS activity, effect (γ-GCS [3]; [10]): no marked effect
- GSH levels, effect (GSH [4]; [10]): no marked effect

Structure (SMILES): NC(=O)CI [iodoacetamide]
- type of Vanin-1 (pantetheinase) inhibition (Vanin-1; [6]): irreversible inhibition

Structure (SMILES): O=C(O)CI [iodoacetate]
- type of Vanin-1 (pantetheinase) inhibition (Vanin-1): irreversible inhibition

Structure (SMILES): OCCSSCCO [oxidized mercaptoethanol]
- type of Vanin-1 (pantetheinase) inhibition (Vanin-1; [6]): reversible inhibition
